Measured values published in patent US12605350B2, “Composition for preventing, ameliorating, or treating disease caused by nitration of tyrosine in proteins comprising tyrosine as effective component” (INDUSTRY-ACADEMIC COOPERATION FOUNDATION GYEONGSANG …, priority 2020, dated 2026).

How the values were obtained:
[1] = system: chronic immobilization stress group (STR); test: corticosterone amount in plasma (ELISA), chronic immobilization stress; assay type: in vivo, mouse; conditions: tyrosine diet (181.2 mg/kg) compared to normal diet, p<0.05
Experimental: Each of the blood and PFC sample was obtained from a mouse anesthetized with CO2 gas. Specifically, mouse blood was collected between 9 AM and 11 AM and stored in a K3EDTA-coated vacuum container. Plasma was obtained by centrifuge for 10 minutes at 4° C., 500×g. PFC sample was weighed first, and, after lysis of the tissues by using Bullet homogenizer, subjected to centrifuge for 20 minutes at 4° C., 12,000 rpm. Thus-obtained plasma and tissue lysate were kept at −80° C. until use. After that, the animal was sacrificed, and a change in corticosterone amount in plasma was examined. ROS/RNS in plasma and PFC was also examined. The corticosterone amount was examined using an ELISA kit (Cayman) by following the manufacturer's protocol, and ROS/RNS was also examined using an ROS/RNS assay kit (Cell Biolabs, San Diego, CA, USA) by following the manufacturer's protocol. The animal models were divided into two groups (i.e., normal group and stress group). The animal of stress group was individually brought by force to a restrainer for 2 hours every day (i.e., between 2 PM and 4 PM) so that it was applied with chronic immobilization stress for 15 days. Change in bodyweight and food intake amount were measured every other day. The normal group and stress group were divided again into a normal diet group and a tyrosine-supplemented diet group (181.2 mg/kg), and then fed.

[2] = system: glutamine synthetase (GS); test: activity of glutamine synthetase (GS) in lysate of cerebral motor cortex, endothelin-1 stroke model; assay type: in vivo, mouse; conditions: Tyr diet (905 mg/kg L-Tyr)
Experimental: (§1) The mouse was anesthetized by intraperitoneal injection of avertin as an anesthetic (0.5 ml/25 g of mouse bodyweight). Thereafter, endothelin-1 was injected (2 μg) to the cerebral motor cortex area (with bregma at the center, AP 1.5 mm, ML-1.5 mm, and DV 1.8 mm) by stereotaxic surgery. The injection was made at speed of 0.3 μl per minute. The needle was left for about 5 minutes after completing the injection so that endothelin-1 can be fully absorbed in animal tissues. After suturing the skin, the animal was allowed to recover in the original cage.
To a 96-well plate, 2 μl of lysate of cerebral motor cortex were added, and then adjusted to 50 μl by additionally adding 50 mM imidazole-HCl buffer solution (pH 6.8). After adding 50 μl of GS activity assay buffer solution (50 mM imidazole-HCl, pH 6.8, 25 mM L-glutamine, 12.5 mM hydroxylamine, 12.5 mM sodium arsenate, 1 mM MnCl2 and 0.08 mM ADP), the reaction was allowed to occur at 37° C. for 30 to 60 minutes.
Upon the completion of the reaction, γ-glutamylhydroxamate as a reference material was added to an empty well (0.391 to 25.0 mM). To the sample and reference material, 100 μl of reaction termination solution (90 mM FeCl3, 1.8 N HCl and 1.45% trichloroacetic acid) were added and absorbance at a wavelength of 560 nm was measured. Based on comparison with standard curve, GS activity was obtained for each sample. […]

[3] = system: mouse model of stroke using endothelin-1; test: brain infarction (cresyl violet staining) in endothelin-1 stroke model; assay type: in vivo; conditions: endothelin-1 (2 μg) to cerebral motor cortex, tyrosine 900 mg/kg (feed weight)
Experimental: To de-ionized water, endothelin-1 was added (2 μg/μl), and, after vigorous vortexing, completely dissolved by ultrasonication at 4° C. for about 10 minutes.
as §1
Perfusion with PBS and PFA was carried out, via animal heart and the brain was removed and post-fixed in PFA for 15 hours or longer. After washing 3 times for 10 minutes with PBS, brain tissue specimen with thickness of 40 μm was obtained using a vibratome. Then, four specimens collected from the area injected with endothelin-1 were fixed on a silane-coated glass slide. […] The stained specimen sample was observed under an optical microscope, and, with the stored image, the area showing brain infarction was calculated by using Image J analysis program.

[4] = system: mouse model of epileptic seizure which has been induced to have seizure by kainic acid; test: epileptic seizure induced by kainic acid: seizure level, bodyweight, survival
Experimental: Kainic acid (KA, Abcam) was dissolved in physiological saline in hot water bath to prepare 9 mg/ml kainic acid solution. After intraperitoneal injection of kainic acid (30 mg/kg), severity level and symptoms of seizure were recorded for 2 hours. Severity level of seizure was decided based on the criteria given in the following Table 2, and also the bodyweight was measured before and 24 hours after the injection of kainic acid, and then the results are compared to each other.

[5] = system: chronic immobilization stress group (STR); test: amount of glutamate, glutamine, tyrosine and GABA in PFC by LC-MS/MS; assay type: in vivo, mouse; conditions: stress group fed tyrosine diet, vs normal group
Excerpt: The Amount of amino acids (glutamate, glutamine, tyrosine) and GABA in the PFC was quantified by liquid chromatography analysis (LC-MS/MS). PFC tissues were lysed first, and the tissue supernatant was collected and diluted with internal reference (L-Glu-d5) and mobile phase. The diluted sample was divided into 5 samples and injected to LC-MS/MS system (Agilent 6460). As for the column, SeQuant ZIC®-HILIC column (2.1×100 mm, 3.5 μm, 100 Å) was used, and, as a mobile phase, acetonitrile containing 0.1% formic acid was used, and the separation was made by using concentration gradient. For detecting the amino acids, multiple reaction monitoring and detection method was employed (m/z of Glu: 148→84, m/z of Gln: 147→84, m/z of GABA: 104→87, and m/z of internal reference: 153→88).

N[C@@H](Cc1ccc(O)cc1)C(=O)O [tyrosine]
corticosterone amount in plasma [1]: statistically significant decrease in corticosterone amount | GS activity of the tissues (cerebral motor cortex) [2]: the activity can be maintained | infarct volume [3]: infarct volume is reduced | severity of seizure ([4]; ICR mouse, L-Tyr diet 181, 543 or 905 mg/kg for 1 week, kainic acid 30 mg/kg i.p., 2 hours): severity of seizure is gradually reduced depending on tyrosine amount | mouse death ([4]; depending on intake amount of tyrosine, kainic acid 30 mg/kg i.p.): improvement in mouse death was also observed depending on intake amount of tyrosine | survival ([4]; diet with feeds containing tyrosine 900 mg/kg (actual intake amount)): all of the mice have survived | amount of GABA in PFC [5]: higher than the amount level of the normal group | amount of glutamate in PFC [5]: higher than the amount level of the normal group | amount of glutamine in PFC [5]: higher than the amount level of the normal group | amount of tyrosine in PFC [5]: higher than the amount level of the normal group
